Laboratory results from patent publication US20230303540A1 (Merck Sharp & Dohme LLC, priority 2020, published 2023).

Molecular target: GST-tagged truncated human mutant G2019S LRRK2 (Homo sapiens, UniProt Q5S007, G2019S)
Experiment: LRRK2 G2019S Km ATP LanthaScreen assay
Type: biochemical
Settings: 134 μM ATP (Km ATP), LRRKtide substrate, mean IC50 values; read-out: LRRK2 pIC50 (converted)
Method: Unless otherwise noted, all reactions are magnetically stirred. Unless otherwise noted, when diethyl ether is used in the experiments described below, it is Fisher ACS certified material and is stabilized with BHT. Unless otherwise noted, “concentrated” and/or “solvent removed under reduced pressure” means evaporating the solvent from a solution or mixture using a rotary evaporator or vacuum pump. Unless otherwise noted, flash chromatography is carried out on a Teledyne Isco (Lincoln, NE), Analogix (Burlington, WI), or Biotage (Stockholm, SWE) automated chromatography system using a commercially available cartridge as the column. Columns may be purchased from Teledyne Isco, Analogix, Biotage, Varian (Palo Alto, CA), or Supelco (Bellefonte, PA) and are usually filled with silica gel as the stationary phase. Reverse phase prep-HPLC conditions, where used, can be found at the end of each experimental section. Aqueous solutions were concentrated on a Genevac (Ipswich, ENG) or by freeze-drying/lyophilization. Unless otherwise noted, all LRRK2 pIC50 data presented in tables refers to the LRRK2 G2019S Km ATP LanthaScreen™ assay (Life Technologies Corp., Carlsbad, CA) that is described in the Biological Assay section.
The IC50 values reported herein were measured as follows.
Biological Assay: LRRK2 Km ATP LanthaScreen™ Assay
The LRRK2 kinase activity reported herein as IC50 values was determined with LanthaScreen™ technology from Life Technologies Corporation (Carlsbad, CA) using GST-tagged truncated human mutant G2019S LRRK2 in the presence of the fluorescein-labeled peptide substrate LRRKtide, also from Life Technologies. The data presented for the Km ATP LanthaScreen™ Assay represents mean IC50 values based on several test results and may have reasonable deviations depending on the specific conditions and reagents used. Assays were performed in the presence of 134 μM ATP (Km ATP). Upon completion, the assay was stopped and phosphorylated substrate detected with a terbium (Tb)-labeled anti-pERM antibody (cat. no. PV4898). The compound dose response was prepared by diluting a 10 mM stock of compound to a maximum concentration of 9.99 μM in 100% dimethylsulfoxide followed by custom fold serial dilution in dimethylsulfoxide nine times. Twenty nanoliters of each dilution was spotted via a Labcyte Echo onto a 384-well black-sided plate (Corning 3575) followed by 15 μl of a 1.25 nM enzyme solution in 1× assay buffer (50 mM Tris pH 8.5, 10 mM MgCl2, 0.01% Brij-35, 1 mM EGTA, 2 mM dithiothreitol, 0.05 mM sodium orthovanadate). Following a 15-minute incubation at room temperature, the kinase reaction was started with the addition of 5 μl of 400 nM fluorescein-labeled LRRKtide peptide substrate and 134 μM ATP solution in 1× assay buffer. The reaction was allowed to progress at ambient temperature for 90 minutes. The reaction was then stopped by the addition of 20 μl of TR-FRET Dilution Buffer (Life Technologies, Carlsbad, CA) containing 2 nM Tb-labeled anti-phospho LRRKtide antibody and 10 mM EDTA (Life Technologies, Carlsbad, CA). After an incubation of 1 hour at room temperature, the plate was read on an EnVision multimode plate reader (Perkin Elmer, Waltham, MA) with an excitation wavelength of 337 nm (Laser) and a reading emission at both 520 and 495 nm. Compound IC50s were interpolated from nonlinear regression best fits of the log of the final compound concentration, plotted as a function of the 520/495-nm emission ratio using Activity base. Abase uses a 4 parameter (4P) logistic fit based on the Levenberg-Marquardt algorithm.

| SMILES | IC50 [nM] |
| --- | --- |
| COC1CCC1n1ncc(Nc2ncc3cc(Cl)c(N4CCC(C)(O)CC4)cc3n2)c1C (single isomer, unassigned) [Ex-6.19, 1-[6-chloro-2-({1-[(1R,2R) or (1S,2S)-2-methoxycyclobutyl]-5-methyl-1H-pyrazol-4-yl}amino)quinazolin-7-yl]-4-methylpiperidin-4-ol] | 2.17 |
| FC1CN(C2CCN(c3cc4nc(Nc5cnn(C6CC6)c5Cl)ncc4cc3Cl)CC2)C1 [Ex-1.27, 6-chloro-N-(5-chloro-1-cyclopropyl-1H-pyrazol-4-yl)-7-[4-(3-fluoroazetidin-1-yl)piperidin-1-yl]quinazolin-2-amine] | 0.778 |
| OC1COCC1N1CCN(c2cc3nc(Nc4cnn(C56CC(F)(C5)C6)c4Cl)ncc3cc2Cl)CC1 (single isomer, unassigned) [Ex-3.58, (3R,4R) or (3S,4S) 4-(4-(6-chloro-2-((5-chloro-1-(3-fluorobicyclo[1.1.1]pentan-1-y])-1H-pyrazol-4-yl)amino)quinazolin-7-yl)piperazin-1-yl) tetrahydrofuran-3-ol] | 0.44 |
| Cc1c(Nc2ncc3cc(Cl)c(N4CCN(C5COCC5O)CC4)cc3n2)cnn1C(F)F (single isomer, unassigned) [Ex-13.7, (3S,4S) or (3R, 4R)-4-(4-(6-chloro-2-((1-(difluoromethyl)-5-methyl-1H-pyrazol-4-yl)amino)quinazolin-7-yl)piperazin-1-yl)tetrahydrofuran-3-ol] | 31.6 |
| OC1COCC1N1CCN(c2cc3nc(Nc4cnn(C5CC5(F)F)c4Cl)ncc3cc2Cl)CC1 (single isomer, unassigned) [Ex-6.31, (3S,4S) or (3R,4R) 4-[4-(6-chloro-2-{[5-chloro-1-(2,2-(R) or (S)difluorocyclopropyl)-1H-pyrazol-4-yl]amino}quinazolin-7-yl)piperazin-1-yl]oxolan-3-ol] | 17.9 |
| OC1COCC12CCN(c1cc3nc(Nc4cnn(C5CC5(F)F)c4Cl)ncc3cc1Cl)CC2 (single isomer, unassigned) [Ex-3.57] | 23.1 |
| CCNc1cc2nc(Nc3cnn(C4CCN(C5(C)COC5)CC4)c3Cl)ncc2cc1Cl [Ex-3.45, 6-chloro-N~2~-{5-chloro-1-[1-(3-methyloxetan-3-yl)piperidin-4-yl]-1H-pyrazol-4-yl}-N~7~- ethylquinazoline-2,7-diamine] | 23.5 |
| Cc1c(Nc2ncc3ccc(N4C(=O)OC[C@@H]4C)cc3n2)cnn1C1C[C@@H](C)O[C@@H](C)C1 (single isomer, unassigned) [Ex-7.6] | 1.57 |
| O[C@H]1COCC12CCN(c1cc3nc(Nc4cnn(C5CC5)c4Cl)ncc3cc1Cl)CC2 [Ex-3.2] | 1.06 |
| Cc1c(Nc2ncc3cc(Cl)c(N4CCC(C)(O)C(C)C4)cc3n2)cnn1C1CC1 (single isomer, unassigned) [Ex-3.50, (3R,4R) or (3S,4S) or (3R,4S) or (3S,4R) 1-{6-chloro-2-[(1-cyclopropyl-5-methyl-1H-pyrazol-4-yl)amino]quinazolin-7-yl}-3,4-dimethylpiperidin-4-ol] | 0.821 |
| CC1(O)CC2(CN(c3cc4nc(Nc5cnn(C6CC6)c5)ncc4cc3Cl)C2)C1 [Ex-4.23, 2-{6-chloro-2-[(1-cyclopropyl-1H-pyrazol-4-yl)amino]quinazolin-7-yl}-6-methyl-2-azaspiro[3.3]heptan-6-ol] | 2.47 |
| Cc1c(Nc2ncc3cc(Cl)c(N4CCC(C)(O)C(C)C4)cc3n2)cnn1C1CC1 (single isomer, unassigned) [Ex-3.48, (3R,4R) or (3S,4S) or (3R,4S) or (3S,4R) 1-{6-chloro-2-[(1-cyclopropyl-5-methyl-1H-pyrazol-4-yl)amino]quinazolin-7-yl}-3,4-dimethylpiperidin-4-ol] | 1.46 |
| Cn1ncc(Nc2ncc3cc(Cl)c(N4CCN(C5(C)COCC5O)CC4)cc3n2)c1C(F)F (single isomer, unassigned) [Ex-6.49, (3S,4S) or (3R,4R) 4-(4-(6-chloro-2-((5-(difluoromethyl)-1-methyl-1H-pyrazol-4-yl)amino)quinazolin-7-yl)piperazin-1-yl)-4-methyltetrahydrofuran-3-ol] | 2.07 |
| Cc1cc2cnc(Nc3cnn(C)c3C)nc2cc1N1CCN(C2(C)COCC2O)CC1 (single isomer, unassigned) [Ex-2.2, (3S,4S or 3R,4R)-4-(4-{2-[(1,5-dimethyl-1H-pyrazol-4-yl)amino]-6-methylquinazolin-7-yl}piperazin-1-yl)-4-methyloxolane-3-ol] | 36 |
| C[C@H]1CN(C)CCN1c1cc2nc(Nc3cnn(C4(C)CC4)c3Cl)ncc2cc1Cl [Ex-4.36, 6-chloro-N-[5-chloro-1-(1-methylcyclopropyl)-1H-pyrazol-4-yl]-7-[(2S)-2,4-dimethylpiperazin-1-yl]quinazolin-2-amine] | 6.06 |
| Cc1nsc(Nc2ncc3ccc(N4C(=O)OC[C@@H]4C)cc3n2)c1C1CC1 [Ex-7.8, (4S)-3-{2-[(4-cyclopropyl-3-methyl-1,2-thiazol-5-yl)amino]quinazolin-7-yl}-4-methyl-1,3-oxazolidin-2-one] | 11 |
| CC1(N2CCN(c3cc4nc(Nc5cnn(C6CC6)c5Cl)ncc4cc3Cl)CC2)COCC1O (single isomer, unassigned) [Ex-1.45, (3S,4S or 3R,4R)-4-(4-{6-chloro-2-[(5-chloro-1-cyclopropyl-1H-pyrazol-4-yl)amino]quinazolin-7-yl}piperazin-1-yl)-4-methyloxolan-3-ol] | 21.3 |
| Cc1c(Nc2ncc3cc(Cl)c(N4CCN(C5COCC5O)CC4)cc3n2)cnn1C1CC1(F)F (single isomer, unassigned) [Ex-6.43, (3S,4S) or (3R,4R) 4-[4-(6-chloro-2-{[1-(2,2-(R) or (S)difluorocyclopropyl)-5-methyl-1H-pyrazol-4-yl]amino}quinazolin-7-yl)piperazin-1-yl]oxolan-3-ol] | 7.92 |
| CC(=O)N1CCN(c2cc3nc(Nc4cnn(C5CC5)c4Cl)ncc3cc2Cl)CC1 [Ex-1.30, 1-(4-{6-chloro-2-[(5-chloro-1-cyclopropyl-1H-pyrazol-4-yl)amino]quinazolin-7-yl}piperazin-1-yl)ethan-1-one] | 7.16 |
| Cc1c(Nc2ncc3cc(Cl)c(N4CCN(C5CCCC5C#N)CC4)cc3n2)cnn1C1CC1 (single isomer, unassigned) [Ex-1.6, (3S,4S or 3R,4R)-2-(4-{6-chloro-2-[(1-cyclopropyl-5-methyl-1H-pyrazol-4-yl)amino]quinazolin-7-yl}piperazin-1-yl)cyclopentane-1-carbonitrile] | 1.89 |
| Cc1c(Nc2cc3cc(N4CCN([C@]5(C)COC[C@@H]5O)CC4)c(Cl)cc3cn2)cnn1C1CC1 (single isomer, unassigned) [Ex-1.2, (3R,4R) or (3S,4S) 4-(4-(7-chloro-3-((1-cyclopropyl-5-methyl-1H-pyrazol-4-yl)amino)isoquinolin-6-yl)piperazin-1-yl)-4-methyltetrahydrofuran-3-ol] | 8.41 |
| CC1(N2CCN(c3cc4nc(Nc5cnn(C6CC(F)C6)c5Cl)ncc4cc3Cl)CC2)COC1 (stereo not drawn) [Ex-3.21, 6-chloro-N-[5-chloro-1-(3-fluorocyclobutyl)-1H-pyrazol-4-yl]-7-[4-(3-methyloxetan-3-yl)piperazin-1-yl]quinazolin-2-amine] | 4.01 |
| OC1CCN(c2cc3nc(Nc4cnn(CC(F)F)c4Cl)ncc3cc2Cl)CC1 [Ex-1.21, 1-(6-chloro-2-{[5-chloro-1-(2,2-difluoroethyl)-1H-pyrazol-4-yl]amino}quinazolin-7-yl)piperidin-4-ol] | 6.09 |
| CCn1ncc(Nc2ncc3cc(Cl)c(N4CCC(C)(O)CC4)cc3n2)c1F [Ex-6.3, 1-{6-chloro-2-[(1-ethyl-5-fluoro-1H-pyrazol-4-yl)amino]quinazolin-7-yl}-4-methylpiperidin-4-ol] | 10.3 |
